The values below come from ChEMBL document CHEMBL5291721, “A preclinical secondary pharmacology resource illuminates target-adverse drug reaction associations of marketed drugs” (Nat Commun, 2023).

Assay [1] concerns the target Gamma-aminobutyric acid receptor subunit alpha-1/alpha-2/beta-2/gamma-2 (Homo sapiens, UniProt P14867+P18507+P47869+P47870). In kind it is protein-complex assay.
Assay [2] concerns the target T1, Prostaglandin G/H synthase 1 (Rattus norvegicus, UniProt Q63921).
T1 sequence (Q63921 whole entry): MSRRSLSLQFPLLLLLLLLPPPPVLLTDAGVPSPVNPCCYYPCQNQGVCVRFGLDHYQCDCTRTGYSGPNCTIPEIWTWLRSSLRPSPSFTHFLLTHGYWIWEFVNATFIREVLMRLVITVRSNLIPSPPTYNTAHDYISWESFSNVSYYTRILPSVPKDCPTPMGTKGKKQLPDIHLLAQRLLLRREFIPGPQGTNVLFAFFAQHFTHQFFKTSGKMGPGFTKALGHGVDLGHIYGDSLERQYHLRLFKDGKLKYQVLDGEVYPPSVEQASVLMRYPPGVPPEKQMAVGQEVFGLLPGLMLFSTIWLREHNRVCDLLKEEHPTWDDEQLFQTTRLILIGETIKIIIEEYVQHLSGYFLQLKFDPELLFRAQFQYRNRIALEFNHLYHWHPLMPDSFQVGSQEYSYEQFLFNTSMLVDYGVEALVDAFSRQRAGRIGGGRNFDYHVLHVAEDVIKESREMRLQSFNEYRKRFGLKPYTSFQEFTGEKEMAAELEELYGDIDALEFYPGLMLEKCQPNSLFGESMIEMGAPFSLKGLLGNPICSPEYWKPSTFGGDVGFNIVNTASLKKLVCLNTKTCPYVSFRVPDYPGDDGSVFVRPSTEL
The format is functional.

For another assay, the target named is Adenosine receptor A2a (Homo sapiens, UniProt P29274).
Sequence of Adenosine receptor A2a (P29274 whole entry): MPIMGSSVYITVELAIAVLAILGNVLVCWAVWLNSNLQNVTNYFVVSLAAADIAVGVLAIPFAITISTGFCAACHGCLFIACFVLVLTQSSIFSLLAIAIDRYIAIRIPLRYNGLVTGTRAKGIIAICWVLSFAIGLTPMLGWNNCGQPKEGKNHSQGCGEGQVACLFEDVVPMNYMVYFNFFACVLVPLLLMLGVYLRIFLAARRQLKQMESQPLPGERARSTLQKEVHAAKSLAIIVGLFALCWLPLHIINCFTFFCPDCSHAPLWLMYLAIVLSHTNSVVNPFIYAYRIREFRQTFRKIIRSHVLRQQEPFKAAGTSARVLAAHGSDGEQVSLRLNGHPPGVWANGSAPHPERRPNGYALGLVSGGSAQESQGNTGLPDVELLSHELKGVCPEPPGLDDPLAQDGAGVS
The target of a further assay is T2, Progesterone receptor (Homo sapiens, UniProt P06401).
T2 sequence (P06401 whole entry): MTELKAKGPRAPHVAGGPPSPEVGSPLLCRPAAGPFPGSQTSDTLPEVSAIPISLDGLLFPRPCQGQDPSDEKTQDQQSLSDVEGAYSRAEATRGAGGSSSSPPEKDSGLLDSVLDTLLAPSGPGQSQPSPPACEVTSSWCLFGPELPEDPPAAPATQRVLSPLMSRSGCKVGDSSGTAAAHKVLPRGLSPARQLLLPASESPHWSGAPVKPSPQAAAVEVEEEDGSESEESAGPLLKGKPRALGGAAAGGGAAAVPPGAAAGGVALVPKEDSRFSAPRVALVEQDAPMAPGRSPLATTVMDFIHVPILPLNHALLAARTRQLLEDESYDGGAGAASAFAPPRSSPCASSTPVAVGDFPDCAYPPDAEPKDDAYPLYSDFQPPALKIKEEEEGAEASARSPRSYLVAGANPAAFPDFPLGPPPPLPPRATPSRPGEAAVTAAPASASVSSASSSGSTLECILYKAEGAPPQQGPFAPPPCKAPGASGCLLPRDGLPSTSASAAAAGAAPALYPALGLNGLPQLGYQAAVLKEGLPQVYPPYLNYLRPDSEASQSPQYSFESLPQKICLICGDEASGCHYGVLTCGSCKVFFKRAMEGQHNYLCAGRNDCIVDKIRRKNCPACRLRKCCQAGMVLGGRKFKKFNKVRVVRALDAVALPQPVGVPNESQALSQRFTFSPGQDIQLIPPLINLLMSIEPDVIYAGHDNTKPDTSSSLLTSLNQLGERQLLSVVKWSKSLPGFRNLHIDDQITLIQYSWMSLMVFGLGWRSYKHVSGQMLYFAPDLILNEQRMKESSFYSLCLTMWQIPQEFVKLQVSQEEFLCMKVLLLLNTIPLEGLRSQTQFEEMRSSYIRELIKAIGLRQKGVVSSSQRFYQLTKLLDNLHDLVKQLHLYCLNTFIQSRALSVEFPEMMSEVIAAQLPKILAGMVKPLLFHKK
In kind it is functional.

Assay [3] concerns the target T3, Muscarinic acetylcholine receptor M2 (Homo sapiens, UniProt P08172).
T3 sequence (P08172 whole entry): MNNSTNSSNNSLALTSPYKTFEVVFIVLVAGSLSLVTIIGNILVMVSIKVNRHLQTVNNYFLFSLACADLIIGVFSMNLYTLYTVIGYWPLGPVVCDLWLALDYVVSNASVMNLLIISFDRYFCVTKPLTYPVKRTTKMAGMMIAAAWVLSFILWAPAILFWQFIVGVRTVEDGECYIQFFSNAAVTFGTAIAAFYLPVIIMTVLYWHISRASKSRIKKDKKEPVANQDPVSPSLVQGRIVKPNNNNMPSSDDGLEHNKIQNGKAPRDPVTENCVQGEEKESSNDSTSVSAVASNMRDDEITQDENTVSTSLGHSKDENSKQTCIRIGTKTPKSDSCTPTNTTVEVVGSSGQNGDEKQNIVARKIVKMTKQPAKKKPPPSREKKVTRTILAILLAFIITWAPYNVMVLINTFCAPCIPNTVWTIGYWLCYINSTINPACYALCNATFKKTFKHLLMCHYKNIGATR
The format is functional, cell-based.

Assay [4] addresses T4, 5-hydroxytryptamine receptor 1A (Homo sapiens, UniProt P08908).
T4 sequence (P08908 whole entry): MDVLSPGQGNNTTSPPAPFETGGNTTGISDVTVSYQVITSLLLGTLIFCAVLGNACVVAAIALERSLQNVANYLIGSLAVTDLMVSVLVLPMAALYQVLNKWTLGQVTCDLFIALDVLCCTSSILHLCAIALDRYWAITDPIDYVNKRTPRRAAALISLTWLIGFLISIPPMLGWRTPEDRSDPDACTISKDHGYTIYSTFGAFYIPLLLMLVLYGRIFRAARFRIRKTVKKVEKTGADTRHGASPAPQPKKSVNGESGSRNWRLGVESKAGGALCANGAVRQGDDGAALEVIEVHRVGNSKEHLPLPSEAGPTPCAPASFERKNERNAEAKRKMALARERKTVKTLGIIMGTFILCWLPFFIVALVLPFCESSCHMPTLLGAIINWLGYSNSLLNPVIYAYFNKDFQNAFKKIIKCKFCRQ
In kind it is functional, cell-based.

The target in the next assay is Vasopressin V1a receptor (Homo sapiens, UniProt P37288).
Sequence of Vasopressin V1a receptor (P37288 whole entry): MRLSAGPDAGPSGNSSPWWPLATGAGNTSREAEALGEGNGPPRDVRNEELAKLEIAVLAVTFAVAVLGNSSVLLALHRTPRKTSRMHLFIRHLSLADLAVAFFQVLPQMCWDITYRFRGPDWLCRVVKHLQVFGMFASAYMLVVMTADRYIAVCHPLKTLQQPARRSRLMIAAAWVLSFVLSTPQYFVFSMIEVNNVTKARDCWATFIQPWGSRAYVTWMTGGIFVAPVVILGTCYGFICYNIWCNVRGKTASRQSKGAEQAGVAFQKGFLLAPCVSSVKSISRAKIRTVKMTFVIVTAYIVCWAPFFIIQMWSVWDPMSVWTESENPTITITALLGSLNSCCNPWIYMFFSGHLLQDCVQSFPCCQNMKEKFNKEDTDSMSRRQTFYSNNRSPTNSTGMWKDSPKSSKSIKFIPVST

The AC50 is the midpoint of the concentration-response curve, whichever way the signal moves. A high value points to weaker potency.
Further: assay procedure not described here.

Sequence of Gamma-aminobutyric acid receptor subunit alpha-1/alpha-2/beta-2/gamma-2 (P14867 whole entry): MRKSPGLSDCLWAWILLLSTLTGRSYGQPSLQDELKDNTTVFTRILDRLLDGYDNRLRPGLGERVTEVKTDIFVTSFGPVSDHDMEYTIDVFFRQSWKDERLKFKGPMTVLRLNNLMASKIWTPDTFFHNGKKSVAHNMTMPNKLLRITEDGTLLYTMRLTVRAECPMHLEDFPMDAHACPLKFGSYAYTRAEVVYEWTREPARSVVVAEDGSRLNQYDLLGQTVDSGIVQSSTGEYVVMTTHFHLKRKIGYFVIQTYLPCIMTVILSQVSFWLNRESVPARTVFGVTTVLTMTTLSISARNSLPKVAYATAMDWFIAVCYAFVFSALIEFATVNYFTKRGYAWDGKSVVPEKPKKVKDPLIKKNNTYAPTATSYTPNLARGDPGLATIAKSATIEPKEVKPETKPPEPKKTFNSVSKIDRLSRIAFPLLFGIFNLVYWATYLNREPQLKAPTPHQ
Sequence of Gamma-aminobutyric acid receptor subunit alpha-1/alpha-2/beta-2/gamma-2 (P47870 whole entry): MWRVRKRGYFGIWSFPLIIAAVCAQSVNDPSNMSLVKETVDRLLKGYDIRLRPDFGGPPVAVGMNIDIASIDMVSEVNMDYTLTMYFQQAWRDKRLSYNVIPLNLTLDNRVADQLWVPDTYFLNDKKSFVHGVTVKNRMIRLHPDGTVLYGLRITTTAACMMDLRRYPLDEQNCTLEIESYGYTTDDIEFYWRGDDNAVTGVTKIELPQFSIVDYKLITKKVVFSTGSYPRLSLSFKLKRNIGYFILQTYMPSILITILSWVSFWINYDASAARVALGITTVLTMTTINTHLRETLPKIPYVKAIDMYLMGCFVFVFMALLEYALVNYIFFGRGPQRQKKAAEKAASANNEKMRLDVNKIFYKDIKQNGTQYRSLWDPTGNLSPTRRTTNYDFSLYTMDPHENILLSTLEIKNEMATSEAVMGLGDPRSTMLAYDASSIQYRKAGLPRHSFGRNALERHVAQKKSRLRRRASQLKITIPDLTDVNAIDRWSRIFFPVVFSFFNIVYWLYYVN
Sequence of Gamma-aminobutyric acid receptor subunit alpha-1/alpha-2/beta-2/gamma-2 (P18507 whole entry): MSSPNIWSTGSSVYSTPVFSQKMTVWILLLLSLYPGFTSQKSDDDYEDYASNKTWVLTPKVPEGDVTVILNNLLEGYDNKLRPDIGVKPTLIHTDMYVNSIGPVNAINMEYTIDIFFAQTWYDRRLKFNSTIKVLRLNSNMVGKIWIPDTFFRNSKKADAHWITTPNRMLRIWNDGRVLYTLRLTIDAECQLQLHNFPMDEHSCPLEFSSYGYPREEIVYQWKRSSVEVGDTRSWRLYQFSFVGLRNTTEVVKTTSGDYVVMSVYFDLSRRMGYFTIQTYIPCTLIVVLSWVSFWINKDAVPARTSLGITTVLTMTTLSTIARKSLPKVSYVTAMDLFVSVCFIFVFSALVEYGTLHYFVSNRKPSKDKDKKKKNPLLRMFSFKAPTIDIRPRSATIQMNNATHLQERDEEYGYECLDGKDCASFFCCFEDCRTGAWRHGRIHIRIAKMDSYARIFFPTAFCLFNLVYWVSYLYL
Sequence of Gamma-aminobutyric acid receptor subunit alpha-1/alpha-2/beta-2/gamma-2 (P47869 whole entry): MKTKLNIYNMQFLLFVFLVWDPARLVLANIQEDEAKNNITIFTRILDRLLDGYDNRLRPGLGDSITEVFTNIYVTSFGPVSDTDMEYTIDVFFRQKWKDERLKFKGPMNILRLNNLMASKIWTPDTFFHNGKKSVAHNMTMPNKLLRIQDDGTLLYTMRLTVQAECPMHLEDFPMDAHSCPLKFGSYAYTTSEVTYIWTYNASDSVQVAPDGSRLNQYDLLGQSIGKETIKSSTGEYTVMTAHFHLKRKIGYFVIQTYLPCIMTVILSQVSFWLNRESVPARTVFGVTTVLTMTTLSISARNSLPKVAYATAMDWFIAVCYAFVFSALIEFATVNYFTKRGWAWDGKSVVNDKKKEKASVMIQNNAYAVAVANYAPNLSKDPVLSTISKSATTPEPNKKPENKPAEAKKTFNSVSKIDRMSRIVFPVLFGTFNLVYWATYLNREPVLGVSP

As for `CN(C)c1ccc(C(=C2C=CC(=[N+](C)C)C=C2)c2ccc(N(C)C)cc2)cc1` [GENTIAN VIOLET], the half-maximal activity concentration (AC50) in assay [1] is above 3 µM.

Consider HYDROXOCOBALAMIN, for which the AC50 was 0.003 µM in assay [2]; above 30 µM on Adenosine receptor A2a; above 30 µM at Progesterone receptor; above 30 µM in assay [3]; above 30 µM in assay [4]; above 30 µM at Vasopressin V1a receptor.
